From patent publication US20150105252A1, “SUBSTITUTED PYRAZOLES AS HERBICIDES” (E I DU PONT DE NEMOURS AND COMPANY, priority 2013, published 2015)

Columns and labels:
corn [1] = assay: Test A postemergence; type: in vivo, Zea mays
Outline: (§1)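 Ratings express plant response from 0 (no effect) to 100 (complete control), judged visually against untreated controls after approximately 10 days in the greenhouse. Preemergence applications were made as directed soil sprays onto seeded loam–sand mix, and postemergence applications onto 2–10 cm plants at one- to two-leaf stage.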

kochia = assay: Test C postemergence; type: in vivo, Kochia scoparia; conditions: for Plant response rating (scale of 0 to 100 where 0 is no effect and 100 is complete control), Kochia: Postemergence, 31 g ai/ha, visually evaluated after 13 to 15 days; for Kochia plant response rating / Plant response rating, Kochia: postemergence; for Kochia plant response rating: 62 g ai/ha, scale 0 to 100
Outline: (§2)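 Greenhouse pot test: preemergence application onto freshly seeded loam/sand mix, postemergence application onto seedlings (1–4 leaves, 2–18 cm) in peat-vermiculite substrate. Responses scored visually 13 to 15 days later relative to controls, where 0 means no effect and 100 means complete control; a dash indicates no result.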

foxtail, giant [2] = assay: Test C preemergence; type: in vivo, Setaria faberii; conditions: for Plant response rating (scale of 0 to 100), Foxtail, Giant: Preemergence, 250 g ai/ha
Outline: as §2

galium [3] = assay: Test C preemergence; type: in vivo, Galium aparine; conditions: for Plant response rating (scale of 0 to 100), Galium: Preemergence, 250 g ai/ha
Outline: as §2

galium [4] = assay: Test C postemergence; type: in vivo, Galium aparine; conditions: for Plant response rating (scale of 0 to 100 where 0 is no effect and 100 is complete control), Galium: Postemergence, 31 g ai/ha, visually evaluated after 13 to 15 days; for Galium plant response rating / Plant response rating, Galium: postemergence; for Galium plant response rating: 62 g ai/ha, scale 0 to 100
Outline: as §2

velvetleaf = assay: Test C postemergence; type: in vivo, Abutilon theophrasti; conditions: for Plant response rating (scale of 0 to 100 where 0 is no effect and 100 is complete control), Velvetleaf: Postemergence, 31 g ai/ha, visually evaluated after 13 to 15 days; for Velvetleaf plant response rating / Plant response rating, Velvetleaf: postemergence; for Velvetleaf plant response rating: 62 g ai/ha, scale 0 to 100
Outline: as §2

corn [5] = assay: Test C preemergence; type: in vivo, Zea mays; conditions: for Plant response rating (scale of 0 to 100), Corn: Preemergence, 250 g ai/ha
Outline: as §2

morningglory = assay: Test C postemergence; type: in vivo, Ipomoea coccinea; conditions: for Plant response rating (scale of 0 to 100 where 0 is no effect and 100 is complete control), Morningglory: Postemergence, 31 g ai/ha, visually evaluated after 13 to 15 days; for Morningglory plant response rating / Plant response rating, Morningglory: postemergence; for Morningglory plant response rating: 62 g ai/ha, scale 0 to 100
Outline: as §2

waterhemp = assay: Test C preemergence; type: in vivo, Amaranthus rudis; conditions: for Plant response rating (scale of 0 to 100), Waterhemp: Preemergence, 250 g ai/ha
Outline: as §2

wheat [6] = assay: Test A postemergence; type: in vivo, Triticum aestivum
Outline: as §1

soybean = assay: Test C preemergence; type: in vivo, Glycine max; conditions: for Plant response rating (scale of 0 to 100), Soybean: Preemergence, 250 g ai/ha
Outline: as §2

wheat [7] = assay: Test C postemergence; type: in vivo, Triticum aestivum; conditions: for Plant response rating (scale of 0 to 100 where 0 is no effect and 100 is complete control), Wheat: Postemergence, 31 g ai/ha, visually evaluated after 13 to 15 days; for Wheat plant response rating / Plant response rating, Wheat: postemergence; for Wheat plant response rating: 62 g ai/ha, scale 0 to 100
Outline: as §2

foxtail, giant [8] = assay: Test C postemergence; type: in vivo, Setaria faberii; conditions: for Plant response rating (scale of 0 to 100 where 0 is no effect and 100 is complete control), Foxtail, Giant: Postemergence, 31 g ai/ha, visually evaluated after 13 to 15 days; for Foxtail, Giant plant response rating / Plant response rating, Foxtail, Giant: postemergence; for Foxtail, Giant plant response rating: 62 g ai/ha, scale 0 to 100
Outline: as §2

barnyardgrass = assay: Test C postemergence; type: in vivo, Echinochloa crus-galli; conditions: for Plant response rating (scale of 0 to 100 where 0 is no effect and 100 is complete control), Barnyardgrass: Postemergence, 31 g ai/ha, visually evaluated after 13 to 15 days; for Barnyardgrass plant response rating / Plant response rating, Barnyardgrass: postemergence; for Barnyardgrass plant response rating: 62 g ai/ha, scale 0 to 100
Description: Seeds of plant species selected from blackgrass (Alopecurus myosuroides), ryegrass, Italian (Italian ryegrass, Lolium multiflorum), wheat (winter wheat, Triticum aestivum), galium (catchweed bedstraw, Galium aparine), corn (Zea mays), crabgrass, large (large crabgrass, Digitaria sanguinalis), foxtail, giant (giant foxtail, Setaria faberii), johnsongrass (Sorghum halepense), lambsquarters (Chenopodium album), morningglory (Ipomoea coccinea), nutsedge, yellow (yellow nutsedge, Cyperus esculentus), pigweed (redroot pigweed, Amaranthus retroflexus), ragweed (common ragweed, Ambrosia elation), soybean (Glycine max), barnyardgrass (Echinochloa crus-galli), oilseed rape (Brassica napus), waterhemp (common waterhemp, Amaranthus rudis), oat, wild (wild oat, Avena fatua), kochia (Kochia scoparia), Surinam grass (Brachiaria decumbens), foxtail, green (green foxtail, Setaria viridis), goosegrass (Eleusine indica), bromegrass, downy (downy bromegrass, Bromus tectorum), nightshade (eastern black nightshade, Solanum ptycanthum), cocklebur (common cocklebur, Xanthium strumarium), cupgrass, woolly (woolly cupgrass, Eriochloa villosa), bermudagrass (Cynodon dactylon), sunflower, (common oilseed sunflower, Helianthus annuus), Russian thistle (Salsola kali), and velvetleaf (Abutilon theophrasti) were planted into a blend of loam soil and sand and treated preemergence with test chemicals formulated in a non-phytotoxic solvent mixture which included a surfactant.
At the same time, plants selected from these crop and weed species and also chickweed (common chickweed, Stellaria media), canarygrass (littleseed canarygrass, Phalaris minor), and deadnettle (henbit deadnettle, Lamium amplexicaule), were planted in pots containing Redi-Earth® planting medium (Scotts Company, 14111 Scottslawn Road, Marysville, Ohio 43041) comprising spaghnum peat moss, vermiculite, wetting agent and starter nutrients and treated with postemergence applications of test chemicals formulated in the same manner. Plants ranged in height from 2 to 18 cm (1- to 4-leaf stage) for postemergence treatments. Treated plants and controls were maintained in a greenhouse for 13 to 15 days, after which time all species were compared to controls and visually evaluated. Plant response ratings, summarized in Table C, are based on a scale of 0 to 100 where 0 is no effect and 100 is complete control. A dash (-) response means no test result.

foxtail, giant [9] = assay: Test A postemergence; type: in vivo, Setaria faberii
Outline: as §1

[10] = Postemergence, 500 g ai/ha, 0 to 100 scale (0 no effect, 100 complete control)
[11] = postemergence, 125 g ai/ha, about 10 days, visual rating on 0 to 100 scale (0 no effect, 100 complete control)
[12] = 250 g ai/ha, scale 0 to 100 (0 no effect, 100 complete control)
[13] = 125 g ai/ha, scale 0 to 100, 0 no effect, 100 complete control
[14] = preemergence, 31 g ai/ha, visual rating, scale 0 to 100 (0 no effect, 100 complete control), 13 to 15 days
[15] = preemergence, 62 g ai/ha, scale 0 to 100 (0 no effect, 100 complete control), 13 to 15 days
[16] = preemergence, 125 g ai/ha, scale 0 to 100, 0 is no effect, 100 is complete control
[17] = preemergence, 125 g ai/ha, 13 to 15 days, scale 0 to 100, 0 = no effect, 100 = complete control

## CCc1cc(C(=O)NOC(C)C)nn1Cc1ccnc(OC(F)F)c1 [Compound 126]
Corn [1]; [10]
  Corn plant response rating: 90
Corn [1]; [11]
  Corn plant response rating: 90
kochia
  Plant response rating (scale of 0 to 100 where 0 is no effect and 100 is complete control), Kochia: 55
  Kochia plant response rating: 50
kochia; [12]
  Plant response rating, Kochia: 65
kochia; [13]
  Plant response rating, Kochia: 65
foxtail, giant [2]
  Plant response rating (scale of 0 to 100), Foxtail, Giant: 100
foxtail, giant [2]; [14]
  Foxtail, Giant plant response rating: 45
foxtail, giant [2]; [15]
  Foxtail, Giant plant response rating: 85
foxtail, giant [2]; [16]
  Foxtail, Giant plant response rating: 98
Galium [3]
  Plant response rating (scale of 0 to 100), Galium: 100
Galium [3]; [14]
  Galium plant response rating: 85
Galium [3]; [15]
  Galium plant response rating: 98
Galium [3]; [16]
  Galium plant response rating: 100
Galium [4]
  Plant response rating (scale of 0 to 100 where 0 is no effect and 100 is complete control), Galium: 50
  Galium plant response rating: 50
Galium [4]; [12]
  Plant response rating, Galium: 70
Galium [4]; [13]
  Plant response rating, Galium: 55
velvetleaf
  Plant response rating (scale of 0 to 100 where 0 is no effect and 100 is complete control), Velvetleaf: 30
  Velvetleaf plant response rating: 25
velvetleaf; [12]
  Plant response rating, Velvetleaf: 70
velvetleaf; [13]
  Plant response rating, Velvetleaf: 35
Corn [5]
  Plant response rating (scale of 0 to 100), Corn: 98
Corn [5]; [14]
  Corn plant response rating: 25
Corn [5]; [15]
  Corn plant response rating: 65
Corn [5]; [16]
  Corn plant response rating: 90
morningglory
  Plant response rating (scale of 0 to 100 where 0 is no effect and 100 is complete control), Morningglory: 40
  Morningglory plant response rating: 60
morningglory; [12]
  Plant response rating, Morningglory: 80
morningglory; [13]
  Plant response rating, Morningglory: 80
waterhemp
  Plant response rating (scale of 0 to 100), Waterhemp: 100
waterhemp; [14]
  Waterhemp plant response rating: 90
waterhemp; [15]
  Waterhemp plant response rating: 98
waterhemp; [16]
  Waterhemp plant response rating: 100
Wheat [6]; [10]
  Wheat plant response rating: 90
Wheat [6]; [11]
  Wheat plant response rating: 90
soybean
  Plant response rating (scale of 0 to 100), Soybean: 98
soybean; [14]
  Soybean plant response rating: 25
soybean; [15]
  Soybean plant response rating: 40
soybean; [16]
  Soybean plant response rating: 75
Wheat [7]
  Plant response rating (scale of 0 to 100 where 0 is no effect and 100 is complete control), Wheat: 5
  Wheat plant response rating: 5
Wheat [7]; [12]
  Plant response rating, Wheat: 5
Wheat [7]; [13]
  Plant response rating, Wheat: 5
foxtail, giant [8]
  Plant response rating (scale of 0 to 100 where 0 is no effect and 100 is complete control), Foxtail, Giant: 10
  Foxtail, Giant plant response rating: 20
foxtail, giant [8]; [12]
  Plant response rating, Foxtail, Giant: 60
foxtail, giant [8]; [13]
  Plant response rating, Foxtail, Giant: 20
barnyardgrass
  Plant response rating (scale of 0 to 100 where 0 is no effect and 100 is complete control), Barnyardgrass: 5
  Barnyardgrass plant response rating: 5
barnyardgrass; [12]
  Plant response rating, Barnyardgrass: 40
barnyardgrass; [13]
  Plant response rating, Barnyardgrass: 10
foxtail, giant [9]; [10]
  Foxtail, Giant plant response rating: 90
foxtail, giant [9]; [11]
  Foxtail, Giant plant response rating: 90

## CCCc1cc(C(=O)NCC(F)(F)F)nn1Cc1ccnc(OC(F)F)c1 [Compound 127]
Corn [1]; [10]
  Corn plant response rating: 90
Corn [1]; [11]
  Corn plant response rating: 90
kochia
  Plant response rating (scale of 0 to 100 where 0 is no effect and 100 is complete control), Kochia: 60
  Kochia plant response rating: 65
kochia; [12]
  Plant response rating, Kochia: 90
kochia; [13]
  Plant response rating, Kochia: 65
foxtail, giant [2]
  Plant response rating (scale of 0 to 100), Foxtail, Giant: 98
foxtail, giant [2]; [14]
  Foxtail, Giant plant response rating: 98
foxtail, giant [2]; [15]
  Foxtail, Giant plant response rating: 100
foxtail, giant [2]; [17]
  Plant response rating, Foxtail, Giant: 100
Galium [3]
  Plant response rating (scale of 0 to 100), Galium: 100
Galium [3]; [14]
  Galium plant response rating: 80
Galium [3]; [15]
  Galium plant response rating: 100
Galium [3]; [17]
  Plant response rating, Galium: 100
Galium [4]
  Plant response rating (scale of 0 to 100 where 0 is no effect and 100 is complete control), Galium: 70
  Galium plant response rating: 70
Galium [4]; [12]
  Plant response rating, Galium: 80
Galium [4]; [13]
  Plant response rating, Galium: 70
velvetleaf
  Plant response rating (scale of 0 to 100 where 0 is no effect and 100 is complete control), Velvetleaf: 10
  Velvetleaf plant response rating: 15
velvetleaf; [12]
  Plant response rating, Velvetleaf: 70
velvetleaf; [13]
  Plant response rating, Velvetleaf: 45
Corn [5]
  Plant response rating (scale of 0 to 100), Corn: 45
Corn [5]; [14]
  Corn plant response rating: 5
Corn [5]; [15]
  Corn plant response rating: 25
Corn [5]; [17]
  Plant response rating, Corn: 65
morningglory
  Plant response rating (scale of 0 to 100 where 0 is no effect and 100 is complete control), Morningglory: 65
  Morningglory plant response rating: 70
morningglory; [12]
  Plant response rating, Morningglory: 85
morningglory; [13]
  Plant response rating, Morningglory: 60
waterhemp
  Plant response rating (scale of 0 to 100), Waterhemp: 100
waterhemp; [14]
  Waterhemp plant response rating: 100
waterhemp; [15]
  Waterhemp plant response rating: 100
waterhemp; [17]
  Plant response rating, Waterhemp: 100
Wheat [6]; [10]
  Wheat plant response rating: 90
Wheat [6]; [11]
  Wheat plant response rating: 80
soybean
  Plant response rating (scale of 0 to 100), Soybean: 85
soybean; [14]
  Soybean plant response rating: 30
soybean; [15]
  Soybean plant response rating: 45
soybean; [17]
  Plant response rating, Soybean: 65
Wheat [7]
  Plant response rating (scale of 0 to 100 where 0 is no effect and 100 is complete control), Wheat: 5
  Wheat plant response rating: 5
Wheat [7]; [12]
  Plant response rating, Wheat: 10
Wheat [7]; [13]
  Plant response rating, Wheat: 5
foxtail, giant [8]
  Plant response rating (scale of 0 to 100 where 0 is no effect and 100 is complete control), Foxtail, Giant: 10
  Foxtail, Giant plant response rating: 15
foxtail, giant [8]; [12]
  Plant response rating, Foxtail, Giant: 35
foxtail, giant [8]; [13]
  Plant response rating, Foxtail, Giant: 15
barnyardgrass
  Plant response rating (scale of 0 to 100 where 0 is no effect and 100 is complete control), Barnyardgrass: 5
  Barnyardgrass plant response rating: 5
barnyardgrass; [12]
  Plant response rating, Barnyardgrass: 15
barnyardgrass; [13]
  Plant response rating, Barnyardgrass: 10
foxtail, giant [9]; [10]
  Foxtail, Giant plant response rating: 90
foxtail, giant [9]; [11]
  Foxtail, Giant plant response rating: 90
